# Several values for one entry are separate records, joined by “and”; a condition that tells them apart may be missing. Identical values can stand only once. Like-named read-outs stand apart in the source and are kept apart here.
# Test system: post-surgical adhesions on the traumatized cecal surface
# Format: in vivo
# Details: score of one rat, 21 days
# Procedure: The samples were then removed from solution, frozen at −80° C. overnight, relyophilized, and sterilized with ethylene oxide.
# Forty-nine 250-300 gram Sprague-Dawley rats were anesthetized with an IM dose of ketamine and xylazine and prepared for aseptic abdominal surgery. […] The adjacent wall of the peritoneal cavity was mildly abraded with the same nylon brush and the cecum was either placed back into the abdominal cavity, covered with biomaterial, which was anchored to the abdominal cavity by suturing it to mesenchymal fat, or injected with a solution and placed back into the abdominal cavity.
# Following cecal abrasion, groups of rats received one of the following 8 treatments: • Treatment 1: (Control) No biomaterials were implanted following cecal injury. […] Care was taken to avoid perforating the bowel N=6 rats. • Treatment 3: (PPM) a piece of polypropylene mesh (Bard) was placed over the abraded surface and secured with non-absorbable nylon suture. […] N=6 rats. • Treatment 8: […] DMSO was delivered to the peritoneal cavity prior to closure. N=6 rats.
# Following placement of the cecum back into the abdominal cavity, the abdominal wall was closed with 4-0 silk and the skin closed with surgical staples.
# [1] = IP high dose: 2.0 mg nimesulide in 1.0 mL DMSO to the peritoneal cavity
# [2] = IP low dose: 0.5 mg nimesulide in 1.0 mL DMSO to the peritoneal cavity
structure (smiles),measurement,setting,value
CS(=O)(=O)Nc1ccc([N+](=O)[O-])cc1Oc1ccccc1 [nimesulide],"Extent (of adhesions, score)",[1],1 (1=adhesions on 25% of the traumatized cecal surface) (3×) and 0
same,"Tenacity (of adhesions, score)",[1],2 (2×) and 1 and 0
same,"Extent (of adhesions, score)",[2],2 (2=adhesions on 50% of the traumatized cecal surface)
same,"Tenacity (of adhesions, score)",[2],2
